# Experimental data as given in US10231453B2, “5-substituted imidazole derivatives” (BAYER CROPSCIENCE AKTIENGESELLSCHAFT, priority 2015, dated 2019).
# Where two headings read alike, the source gives them in different places. Marks after values point to notes of the source that are not given here.
# Assays:
# [1] = Measurement of LogP values by HPLC on reversed phase columns (EEC directive 79/831 Annex V.A8); type: physicochemical; conditions: for chromatographic logP: method [a]: LC-UV, acidic range, 0.1% formic acid in water and acetonitrile as eluent, Table 1
# Procedure: Measurement of Log P values was performed as outlined above.
# Puccinia recondita = assay: In vivo preventive test on Puccinia recondita (brown rust on wheat), Examples C and R3; conditions: preventive spray, evaluated 11 days after inoculation; for pest or weed control at 500 ppm / pest or weed control at 100 ppm: Puccinia recondita, 264 h
# Septoria tritici = assay: In vivo preventive test on Septoria tritici (leaf spot on wheat), Examples E, Q3 and R5; conditions: Zymoseptoria tritici, 576 h, 500 ppm of active ingredient; wheat, preventive spray, evaluated 24 days after inoculation; read-out: efficacy
# Sphaerotheca fuliginea = assay: In vivo preventive test on Sphaerotheca fuliginea (powdery mildew on cucurbits), Examples F and R6; conditions: Podosphaera fuliginea, 360 h; 500 ppm of active ingredient; gherkin, preventive spray, evaluated 15 days after inoculation; read-out: efficacy
# Uromyces appendiculatus = assay: In vivo preventive test on Uromyces appendiculatus (bean rust), Examples G and R7; conditions: 264 h, 500 ppm of active ingredient, bean, preventive spray, evaluated 11 days after inoculation, read-out: efficacy
# [2] = 500 ppm of active ingredient, wheat, read-out: efficacy
# [3] = Example R3, wheat, 100 ppm, read-out: Efficacy in %
# [4] = Example R3, wheat, 500 ppm, read-out: Efficacy in %
smiles,measurement,setting,value
N#Cc1cncn1CC(O)(Cc1ccncc1Br)C1(Cl)CC1 (racemic) [Example I-46],LogP,[1],1.94^[a]
N#Cc1cncn1CC(O)(Cc1ccc(Oc2ccc(Cl)cc2)cc1Cl)C1(Cl)CC1 (racemic) [Example I-53],LogP,[1],4.54^[a]
O=C(Cc1ccccc1F)c1cncn1CC(O)(Cc1ccccc1F)C1(Cl)CC1 (racemic) [Example I-134],LogP,[1],3.60^[a]
OC(Cc1ccc(Cl)cc1F)(Cn1cnc(Br)c1)C1(Cl)CC1 (racemic) [drawing 98],Efficacy in %,"Puccinia recondita; Example R3, wheat, 100 ppm",0%
same,Efficacy in %,"Puccinia recondita; Example R3, wheat, 500 ppm",94%
N#Cc1cn(CC(O)(Cc2ccc(Cl)cc2F)C2(Cl)CC2)cn1 (racemic) [drawing 100],Efficacy in %,"Puccinia recondita; Example R3, wheat, 100 ppm",81%
same,Efficacy in %,"Puccinia recondita; Example R3, wheat, 500 ppm",94%
OC(Cc1ccc(Cl)cc1F)(Cn1cnc(Cl)c1)C1(Cl)CC1 (racemic) [drawing 102],Efficacy in %,"Puccinia recondita; Example R3, wheat, 100 ppm",0%
same,Efficacy in %,"Puccinia recondita; Example R3, wheat, 500 ppm",67%
"OC(Cc1ccc(Cl)cc1F)(Cn1cncc1Cl)C1(Cl)CC1 (single isomer, unassigned) [Example I-113]",LogP,[1],2.54^[a]
"N#Cc1cncn1CC(O)(Cc1ccccc1F)C1(Cl)CC1 (single isomer, unassigned) [Example I-132]",LogP,[1],2.59^[a]
"N#Cc1cncn1CC(O)(Cc1ccccc1F)C1(Cl)CC1 (single isomer, unassigned) [Example I-133]",LogP,[1],2.59^[a]
OC(Cc1ccccc1Cl)(Cn1cncc1-c1ccccc1)C1(Cl)CC1 (stereo not shown) [Example I-09],pest or weed control at 500 ppm,Septoria tritici,70 to 79%
same,pest or weed control at 500 ppm,Sphaerotheca fuliginea,90 to 100%
same,pest or weed control at 500 ppm,Uromyces appendiculatus,90 to 100%
N#Cc1cncn1CC(O)(C(F)c1ccccc1F)C1(Cl)CC1 (stereo not shown) [Example I-31],pest or weed control at 500 ppm,Puccinia recondita; [2],90 to 100%
same,pest or weed control at 500 ppm,Septoria tritici,90 to 100%
same,pest or weed control at 500 ppm,Sphaerotheca fuliginea,90 to 100%
same,pest or weed control at 500 ppm,Uromyces appendiculatus,90 to 100%
N#Cc1cncn1CC(O)(Cc1ccc(Cl)cc1Cl)C1(Cl)CC1 (stereo not shown) [Example I-52],pest or weed control at 500 ppm,Puccinia recondita; [2],80 to 89%
same,pest or weed control at 500 ppm,Septoria tritici,90 to 100%
same,pest or weed control at 500 ppm,Sphaerotheca fuliginea,90 to 100%
same,pest or weed control at 500 ppm,Uromyces appendiculatus,90 to 100%
N#Cc1cncn1CC(O)(Cc1cc(Cl)nc(Cl)c1)C1(Cl)CC1 (stereo not shown) [Example I-61],pest or weed control at 500 ppm,Puccinia recondita; [2],70 to 79%
same,pest or weed control at 500 ppm,Septoria tritici,90 to 100%
same,pest or weed control at 500 ppm,Sphaerotheca fuliginea,90 to 100%
same,pest or weed control at 500 ppm,Uromyces appendiculatus,90 to 100%
N#Cc1cncn1CC(O)(Cc1ccc(-c2ccccc2)cc1)C1(Cl)CC1 (stereo not shown) [Example I-63],chromatographic logP,[1],3.68
N#Cc1cncn1CC(O)(Cc1ccccc1Cl)C1CCC1 (stereo not shown) [Example I-81],pest or weed control at 500 ppm,Puccinia recondita; [2],90 to 100%
same,pest or weed control at 500 ppm,Septoria tritici,90 to 100%
same,pest or weed control at 500 ppm,Sphaerotheca fuliginea,90 to 100%
same,pest or weed control at 500 ppm,Uromyces appendiculatus,90 to 100%
CC(C)(C)CC(O)(Cc1ccccc1Cl)Cn1cncc1C#N (stereo not shown) [Example I-83],chromatographic logP,[1],3.55
CC(C)(C)CC(O)(Cc1ccc(Cl)cc1)Cn1cncc1C#N (stereo not shown) [Example I-86],chromatographic logP,[1],3.37
N#Cc1cncn1CC(O)(Cc1ccc(F)c(F)c1F)C1(F)CC1 (stereo not shown) [Example I-93],chromatographic logP,[1],2.52
N#Cc1cncn1CC(O)(Cc1ccc(Cl)cc1F)C1CC1 (stereo not shown) [Example I-115],pest or weed control at 500 ppm,Puccinia recondita; [2],90 to 100%
same,pest or weed control at 500 ppm,Septoria tritici,90 to 100%
same,pest or weed control at 500 ppm,Sphaerotheca fuliginea,90 to 100%
same,pest or weed control at 500 ppm,Uromyces appendiculatus,90 to 100%
N#Cc1cncn1CC(O)(Cc1ccc(F)cc1F)C1CCC1 (stereo not shown) [Example I-127],pest or weed control at 500 ppm,Puccinia recondita; [2],80 to 89%
same,pest or weed control at 500 ppm,Septoria tritici,90 to 100%
same,pest or weed control at 500 ppm,Sphaerotheca fuliginea,90 to 100%
same,pest or weed control at 500 ppm,Uromyces appendiculatus,90 to 100%
OC(Cc1ccccc1Cl)(Cn1cnc(Br)c1)C1(Cl)CC1 (stereo not shown) [drawing 87],pest or weed control at 100 ppm,Puccinia recondita; [3],75%
same,pest or weed control at 500 ppm,Puccinia recondita; [4],81%
Cc1cn(CC(O)(Cc2ccccc2Cl)C2(Cl)CC2)cn1 (stereo not shown) [drawing 89],pest or weed control at 100 ppm,Puccinia recondita; [3],29%
same,pest or weed control at 500 ppm,Puccinia recondita; [4],86%
N#Cc1cn(CC(O)(Cc2ccccc2Cl)C2(Cl)CC2)cn1 (stereo not shown) [drawing 91],pest or weed control at 100 ppm,Puccinia recondita; [3],0%
same,pest or weed control at 500 ppm,Puccinia recondita; [4],83%
